Experimental data: patent US4556713A, “6-Fluoro-5-nitroquinaldine” (Riker Laboratories, Inc., priority 1984, dated 1985)
Converted amounts (≈) assume the structure as drawn. Where two headings read alike, the source gives them in different places.

Columns and labels:
ENTEROCOCCUS = test: Plate dilution antimicrobial susceptibility, Enterococcus; conditions: for MIC: 24 h
Experimental: (§1) Tryptone soy agar (oxoid) of the following composition is the culture medium.
(§2) A series of plates with these concentrations is prepared. Ten percent horse serum is added to one series of such plates. Aliquots of broth culture of any of twelve species of microorganisms are innoculated onto the agar plates contaning the various compound concentrations. The plates are incubated at 37° C. in a 10 percent carbon dioxide atmosphere for 18 to 24 hours. The microbial growth on each plate is read visually, and minimal inhibitory concentrations are recorded.
(§3) The tests were run both in the absence and in the presence of horse serum as described hereinabove.

STREP. SPECIES = test: Plate dilution antimicrobial susceptibility, Strep. species; conditions: for MIC: 24 h, read-out: Minimum Inhibitory Concentration, Strep. species; for Minimum Inhibitory Concentration: Strep. species
Experimental: as §1, §2, §3

Escherichia coli = test: Plate dilution antimicrobial susceptibility, Escherichia coli; conditions: for MIC: 24 h, read-out: Minimum Inhibitory Concentration
Experimental: as §1, §2, §3

Staphylococcus aureus = test: Plate dilution antimicrobial susceptibility, Staphylococcus aureus; conditions: for MIC: 24 h, read-out: Minimum Inhibitory Concentration
Experimental: as §1, §2, §3

Klebsiella pneumoniae = test: Plate dilution antimicrobial susceptibility, Klebsiella pneumoniae; conditions: for MIC: 24 h, read-out: Minimum Inhibitory Concentration
Experimental: as §1, §2, §3

Pseudomonas aeruginosa = test: Plate dilution antimicrobial susceptibility, Pseudomonas aeruginosa; conditions: for MIC: 24 h, read-out: Minimum Inhibitory Concentration
Experimental: as §1, §2, §3

[1] = system: gram-positive and gram-negative microorganisms; test: Plate dilution method, antimicrobial activity in general (gram-positive and gram-negative microorganisms); assay type: cell-based; conditions: in vitro
[2] = read-out: Minimum Inhibitory Concentration, Enterococcus, absence of horse serum
[3] = read-out: Minimum Inhibitory Concentration, Enterococcus, presence of 10 percent horse serum
[4] = presence of 10 percent horse serum

CC1CCc2c(Cl)c(F)cc3c(=O)c(C(=O)O)cn1c23 (stereo not shown) [8-Cl, 9-F, 8-chloro-6,7-dihydro-9-fluoro-5-methyl-1-oxo-1H,5H-benzo[ij]quinolizine-2-carboxylic acid]
MIC (ENTEROCOCCUS; [2]): 1 µg/mL (≈ 3.38 µM)
MIC (ENTEROCOCCUS; [3]): 10 µg/mL
MIC (STREP. SPECIES; [4]): 10 µg/mL
MIC (Escherichia coli): 0.1 µg/mL (≈ 0.338 µM)
Minimum Inhibitory Concentration (Escherichia coli; [4]): .1 mg/L
MIC (Staphylococcus aureus): 0.1 µg/mL (≈ 0.338 µM)
MIC (Klebsiella pneumoniae): 1 µg/mL (≈ 3.38 µM)
Minimum Inhibitory Concentration (Klebsiella pneumoniae; [4]): 1 mg/L
MIC (Pseudomonas aeruginosa): 10 µg/mL (≈ 33.8 µM)
Minimum Inhibitory Concentration (Pseudomonas aeruginosa; [4]): 10 mg/L

CC1CCc2c(Br)c(F)cc3c(=O)c(C(=O)O)cn1c23 (stereo not shown) [8-Br, 9-F, 8-bromo-6,7-dihydro-9-fluoro-5-methyl-1-oxo-1H,5H-benzo[ij]quinolizine-2-carboxylic acid]
MIC (ENTEROCOCCUS; [2]): 1 µg/mL (≈ 2.94 µM)
MIC (ENTEROCOCCUS; [3]): 1 µg/mL
MIC (STREP. SPECIES; absence of horse serum): 1 µg/mL (≈ 2.94 µM)
MIC (STREP. SPECIES; [4]): 10 µg/mL
MIC (Escherichia coli): 0.1 µg/mL (≈ 0.294 µM)
Minimum Inhibitory Concentration (Escherichia coli; [4]): .1 mg/L
MIC (Staphylococcus aureus): 0.1 µg/mL (≈ 0.294 µM)
Minimum Inhibitory Concentration (Staphylococcus aureus; [4]): .1 mg/L
MIC (Klebsiella pneumoniae): 1 µg/mL (≈ 2.94 µM)
Minimum Inhibitory Concentration (Klebsiella pneumoniae; [4]): 1 mg/L
MIC (Pseudomonas aeruginosa): 10 µg/mL (≈ 29.4 µM)
Minimum Inhibitory Concentration (Pseudomonas aeruginosa; [4]): 10 mg/L

CC1CCc2c(N)c(Cl)cc3c(=O)c(C(=O)O)cn1c23 (stereo not shown) [8-NH2,9-Cl]
Minimum Inhibitory Concentration (ENTEROCOCCUS; absence of horse serum): I
Minimum Inhibitory Concentration (ENTEROCOCCUS; [4]): I
Minimum Inhibitory Concentration (STREP. SPECIES; absence of horse serum): I
Minimum Inhibitory Concentration (STREP. SPECIES; [4]): I
Minimum Inhibitory Concentration (Escherichia coli; absence of horse serum): 10 mg/L
Minimum Inhibitory Concentration (Escherichia coli; [4]): 10 mg/L
Minimum Inhibitory Concentration (Staphylococcus aureus; absence of horse serum): 100 mg/L
Minimum Inhibitory Concentration (Staphylococcus aureus; [4]): 100 mg/L
Minimum Inhibitory Concentration (Klebsiella pneumoniae; absence of horse serum): 100 mg/L
Minimum Inhibitory Concentration (Klebsiella pneumoniae; [4]): 100 mg/L
Minimum Inhibitory Concentration (Pseudomonas aeruginosa; absence of horse serum): I
Minimum Inhibitory Concentration (Pseudomonas aeruginosa; [4]): I

CC(=O)Nc1c(Cl)cc2c(=O)c(C(=O)O)cn3c2c1CCC3C (stereo not shown) [8-NHCOCH3, 9-Cl]
Minimum Inhibitory Concentration (ENTEROCOCCUS; absence of horse serum): I
Minimum Inhibitory Concentration (ENTEROCOCCUS; [4]): I
Minimum Inhibitory Concentration (STREP. SPECIES; absence of horse serum): I
Minimum Inhibitory Concentration (STREP. SPECIES; [4]): I
Minimum Inhibitory Concentration (Escherichia coli; absence of horse serum): 10 mg/L
Minimum Inhibitory Concentration (Escherichia coli; [4]): 10 mg/L
Minimum Inhibitory Concentration (Staphylococcus aureus; absence of horse serum): I
Minimum Inhibitory Concentration (Staphylococcus aureus; [4]): I
Minimum Inhibitory Concentration (Klebsiella pneumoniae; absence of horse serum): 100 mg/L
Minimum Inhibitory Concentration (Klebsiella pneumoniae; [4]): 100 mg/L
Minimum Inhibitory Concentration (Pseudomonas aeruginosa; absence of horse serum): I
Minimum Inhibitory Concentration (Pseudomonas aeruginosa; [4]): I

CC1CCc2cc(F)cc3c(=O)c(C(=O)O)cn1c23 (stereo not shown) [Example 9-F]
Minimum Inhibitory Concentration (ENTEROCOCCUS; absence of horse serum): 100 mg/L
Minimum Inhibitory Concentration (ENTEROCOCCUS; [4]): 100 mg/L
Minimum Inhibitory Concentration (STREP. SPECIES; absence of horse serum): 100 mg/L
Minimum Inhibitory Concentration (STREP. SPECIES; [4]): 100 mg/L
Minimum Inhibitory Concentration (Escherichia coli; absence of horse serum): 1 mg/L
Minimum Inhibitory Concentration (Escherichia coli; [4]): 1 mg/L
Minimum Inhibitory Concentration (Staphylococcus aureus; absence of horse serum): 10 mg/L
Minimum Inhibitory Concentration (Staphylococcus aureus; [4]): 10 mg/L
Minimum Inhibitory Concentration (Klebsiella pneumoniae; absence of horse serum): 1 mg/L
Minimum Inhibitory Concentration (Klebsiella pneumoniae; [4]): 1 mg/L
Minimum Inhibitory Concentration (Pseudomonas aeruginosa; absence of horse serum): 100 mg/L
Minimum Inhibitory Concentration (Pseudomonas aeruginosa; [4]): 100 mg/L

Cc1cc2c(=O)c(C(=O)O)cn3c2c(c1Cl)CCC3C (stereo not shown) [8-Cl, 9-CH3]
Minimum Inhibitory Concentration (ENTEROCOCCUS; absence of horse serum): 100 mg/L
Minimum Inhibitory Concentration (ENTEROCOCCUS; [4]): I
Minimum Inhibitory Concentration (STREP. SPECIES; absence of horse serum): 100 mg/L
Minimum Inhibitory Concentration (STREP. SPECIES; [4]): 100 mg/L
Minimum Inhibitory Concentration (Escherichia coli; absence of horse serum): 10 mg/L
Minimum Inhibitory Concentration (Escherichia coli; [4]): 10 mg/L
Minimum Inhibitory Concentration (Staphylococcus aureus; absence of horse serum): 10 mg/L
Minimum Inhibitory Concentration (Staphylococcus aureus; [4]): 100 mg/L
Minimum Inhibitory Concentration (Klebsiella pneumoniae; absence of horse serum): 100 mg/L
Minimum Inhibitory Concentration (Klebsiella pneumoniae; [4]): 100 mg/L
Minimum Inhibitory Concentration (Pseudomonas aeruginosa; absence of horse serum): 100 mg/L
Minimum Inhibitory Concentration (Pseudomonas aeruginosa; [4]): I

CC1CCc2cc(Br)cc3c(=O)c(C(=O)O)cn1c23 (stereo not shown) [Example 9-Br]
Minimum Inhibitory Concentration (STREP. SPECIES; absence of horse serum): 100 mg/L
Minimum Inhibitory Concentration (STREP. SPECIES; [4]): 100 mg/L
Minimum Inhibitory Concentration (Escherichia coli; absence of horse serum): 10 mg/L
Minimum Inhibitory Concentration (Escherichia coli; [4]): 10 mg/L
Minimum Inhibitory Concentration (Staphylococcus aureus; absence of horse serum): 100 mg/L
Minimum Inhibitory Concentration (Staphylococcus aureus; [4]): 100 mg/L
Minimum Inhibitory Concentration (Pseudomonas aeruginosa; absence of horse serum): I
Minimum Inhibitory Concentration (Pseudomonas aeruginosa; [4]): I

CC1CCc2c(Cl)ccc3c(=O)c(C(=O)O)cn1c23 (stereo not shown) [Example 8-Cl]
Minimum Inhibitory Concentration (ENTEROCOCCUS; absence of horse serum): 10 mg/L
Minimum Inhibitory Concentration (ENTEROCOCCUS; [4]): 10 mg/L
Minimum Inhibitory Concentration (STREP. SPECIES; absence of horse serum): 10 mg/L
Minimum Inhibitory Concentration (STREP. SPECIES; [4]): 100 mg/L
Minimum Inhibitory Concentration (Escherichia coli; absence of horse serum): 1 mg/L
Minimum Inhibitory Concentration (Escherichia coli; [4]): 1 mg/L
Minimum Inhibitory Concentration (Staphylococcus aureus; absence of horse serum): 1 mg/L
Minimum Inhibitory Concentration (Staphylococcus aureus; [4]): 1 mg/L
Minimum Inhibitory Concentration (Klebsiella pneumoniae; absence of horse serum): 10 mg/L
Minimum Inhibitory Concentration (Klebsiella pneumoniae; [4]): 10 mg/L
Minimum Inhibitory Concentration (Pseudomonas aeruginosa; absence of horse serum): 100 mg/L
Minimum Inhibitory Concentration (Pseudomonas aeruginosa; [4]): 100 mg/L

COc1cc2c(=O)c(C(=O)O)cn3c2c(c1Cl)CCC3C (stereo not shown) [8-Cl, 9-OCH3]
Minimum Inhibitory Concentration (ENTEROCOCCUS; absence of horse serum): 100 mg/L
Minimum Inhibitory Concentration (ENTEROCOCCUS; [4]): 100 mg/L
Minimum Inhibitory Concentration (STREP. SPECIES; absence of horse serum): 100 mg/L
Minimum Inhibitory Concentration (STREP. SPECIES; [4]): 100 mg/L
Minimum Inhibitory Concentration (Escherichia coli; absence of horse serum): 10 mg/L
Minimum Inhibitory Concentration (Escherichia coli; [4]): 10 mg/L
Minimum Inhibitory Concentration (Staphylococcus aureus; absence of horse serum): 10 mg/L
Minimum Inhibitory Concentration (Staphylococcus aureus; [4]): 10 mg/L
Minimum Inhibitory Concentration (Klebsiella pneumoniae; absence of horse serum): 100 mg/L
Minimum Inhibitory Concentration (Klebsiella pneumoniae; [4]): 100 mg/L
Minimum Inhibitory Concentration (Pseudomonas aeruginosa; absence of horse serum): I
Minimum Inhibitory Concentration (Pseudomonas aeruginosa; [4]): I

CC1CCc2cc(Cl)cc3c(=O)c(C(=O)O)cn1c23 (stereo not shown) [Example 9-Cl]
Minimum Inhibitory Concentration (STREP. SPECIES; absence of horse serum): 100 mg/L
Minimum Inhibitory Concentration (STREP. SPECIES; [4]): 100 mg/L
Minimum Inhibitory Concentration (Escherichia coli; absence of horse serum): 1 mg/L
Minimum Inhibitory Concentration (Escherichia coli; [4]): 1 mg/L
Minimum Inhibitory Concentration (Staphylococcus aureus; absence of horse serum): 10 mg/L
Minimum Inhibitory Concentration (Staphylococcus aureus; [4]): 10 mg/L
Minimum Inhibitory Concentration (Pseudomonas aeruginosa; absence of horse serum): I
Minimum Inhibitory Concentration (Pseudomonas aeruginosa; [4]): I

CC1CCc2c(N)c(F)cc3c(=O)c(C(=O)O)cn1c23 (stereo not shown) [8-amino compound, 8-amino-6,7-dihydro-9-fluoro-5-methyl-1-oxo-1H,5H-benzo[ij]quinolizine-2-carboxylic acid]
antimicrobial activity (in words) [1]: good antimicrobial activity against many species of microorganisms

CC1CCc2c(Br)c(F)cc3c(=O)c(C(=O)[O-])cn1c23.[Na+] (stereo not shown) [8-Br, 9-F sodium salt, sodium 8-bromo-6,7-dihydro-9-fluoro-5-methyl-1-oxo-1H,5H-benzo[ij]quinolizine-2-carboxylate]
Minimum Inhibitory Concentration (ENTEROCOCCUS; [4]): 1 mg/L
Minimum Inhibitory Concentration (Escherichia coli; [4]): .1 mg/L
Minimum Inhibitory Concentration (Staphylococcus aureus; [4]): .1 mg/L
Minimum Inhibitory Concentration (Pseudomonas aeruginosa; [4]): 10 mg/L

CC1CCc2c(Cl)c(F)cc3c(=O)c(C(=O)[O-])cn1c23.[Na+] (stereo not shown) [8-Cl, 9-F sodium salt, sodium 8-chloro-6,7-dihydro-9-fluoro-5-methyl-1-oxo-1H,5H-benzo[ij]quinolizine-2-carboxylate]
Minimum Inhibitory Concentration (ENTEROCOCCUS; [4]): 1 mg/L
Minimum Inhibitory Concentration (Klebsiella pneumoniae; [4]): 1 mg/L
Minimum Inhibitory Concentration (Pseudomonas aeruginosa; [4]): 10 mg/L
